According to patent EP0426574A1, “Thiazole derivatives and antiulcer agents containing the same” (TERUMO KABUSHIKI KAISHA, priority 1989, dated 1991):
Structures can show the parent of a compound that is named as a salt.

tested on: ethanol hydrochloric acid ulcer; experiment: Inhibitory activity against ethanol hydrochloric acid ulcer; format: in vivo; settings: SD male rats fasted 24 hours; 30mg/kg orally, one hour before 150 mM hydrochloric acid in 60% ethanol; ulcer index = total lesion length, one hour later
Method: To SD male rats (weighing 150-250 g) fasted for 24 hours was administered orally a thiazole derivative of the invention. One hour later, a hydrochloric acid solution in ethanol (containing 150 mM hydrochloric acid in 60% ethanol) was orally given in a volume of 0.5 ml/100 g bodyweight.
One hour later, the animals were sacrificed with ether. The stomach was excised and, after formalin treatment, measured for the length (mm) of lesions developed in glandular portions of the stomach. Total length of the lesions per animal was taken as ulcer index.
Percent inhibition of ulceration as referred to in the table is a value obtained by reducing from 1 the ulcer index for the rat with a thiazole derivative of the invention orally given divided by the ulcer index for the orally non-administered rat and multiplying the value by 100. The calculation is conducted by the formula shown below. [formula]

SMILES | Percent inhibition of ulceration (%)
CNc1nc2cccnc2s1 [Example 1, 2-methylamino[5,4-b]pyridothiazole hydrochloride] | 100.0
c1ccc(Nc2nc3cccnc3s2)cc1 [Example 2, 2-phenylamino[5,4-b]pyridothiazole hydrochloride] | 88.8
c1ccc(CNc2nc3cccnc3s2)cc1 [Example 3, 2-benzylamino[5,4-b]pyridothiazole hydrochloride] | 87.2
CN(C)c1ccc(Nc2nc3cccnc3s2)cc1 [Example 4, 2-(4-dimethylaminophenyl)amino[5,4-b]pyridothiazole hydrochloride] | 45.5
COc1ccc(Nc2nc3cccnc3s2)cc1 [Example 5, 2-(4-methoxyphenyl)-amino[5,4-b]pyridothiazole hydrochloride] | 51.2
